We go through one molecule from article PMC11859092 (Pharmaceutics, 2025).

The test system of data set [1] is DENV-2. Put plainly: microbe, parasite or virus in culture. The note with it: Dengue virus. The format is cell-based, DENV type-2 (DENV-2) strain NGC.
Data set [2] has as its system YFV. Nature of the data set: microbe, parasite or virus in culture. The format is cell-based, YFV vaccine strain YF-17D. As to conditions: Yellow fever virus.
The conditions of data set [3]: cited from earlier work.
A short description of data set [4]: EFV solubilization in Soluplus nanomicelle dispersions (apparent aqueous solubility, RP-HPLC). As to conditions: distilled water, 25 °C.
The conditions of data set [5]: cited from earlier work. This is another data set of the same source.
Data set [6] is described as follows: In vitro cytotoxicity test (MTT). The class given is cell-based. On the procedure:
Thereafter, cell viability was determined by the 3-(4,5-dimethylthiazol-2-yl)-2,5-diphenyl tetrazolium bromide (MTT, Sigma-Aldrich, St. Louis, MO, USA) method at a final concentration 0.5 mg/mL. After 2 h of incubation at 37 °C, the supernatants were removed, ethanol was added to each well to solubilize the formazan crystals and absorbance was measured in a multi-mode microplate reader (FLUOstar® Omega, Labtech, Eschelbronn, Germany) at 595 nm. […] All determinations were performed in triplicate.

For data set [7], the system named is ZIKV. Put plainly: Virus yield inhibition assay (PFU). The format is cell-based, ZIKV INEVH-116141 strain. As to conditions: Zika virus, m.o.i. 0.1, 48 h p.i.

Converted amounts (≈) assume the structure as drawn.

Take `O=C1Nc2ccc(Cl)cc2[C@@](C#CC2CC2)(C(F)(F)F)O1` [EFV, Efavirenz]: the EC50 is 2.69 µg/mL (≈ 8.52 µM) in data set [1] (DENV2, A549, 48 h); 8.17 µg/mL (≈ 25.9 µM) in data set [1] (DENV2, Vero, 48 h); 12.6 µg/mL (≈ 39.9 µM) in data set [2] (A549, 48 h); 1.48 µg/mL (≈ 4.69 µM) in data set [2] (Vero, 48 h); 4.98 µg/mL (≈ 15.8 µM) in data set [7] (ZIKV in A549 cells); 2.41 µg/mL (≈ 7.63 µM) in data set [7] (ZIKV in Vero cells). Further, the Cmax in humans in data set [3] was 4000 ng/mL. Moreover, the “PM molar partition coefficient (micelle/water)” value in data set [4] (Soluplus 1% w/v) was 5368; in data set [4] (Soluplus 3% w/v), 5220; in data set [4] (Soluplus 5% w/v), 5303; in data set [4] (Soluplus 7% w/v), 6181; in data set [4] (Soluplus 10% w/v), 5666. The “P partition coefficient (micelle/water)” value in data set [4] (Soluplus 3% w/v) was 1327; in data set [4] (Soluplus 5% w/v), 2247; in data set [4] (Soluplus 7% w/v) it was 3667; in data set [4] (Soluplus 10% w/v), 4802. Besides, the “biopharmaceutical classification system (BCS) class” value in data set [5] is recorded as “class II”. For the same molecule, in data set [5], the intrinsic aqueous solubility was 4 µg/mL. Also, the CC50 at 48 h in data set [6] (African green monkey, Vero) came out at 56.8 µg/mL (≈ 180 µM); in data set [6] (human, A549, 48 h), 126 µg/mL (≈ 399 µM).

By EC50 is commonly meant the concentration needed to bring the measured effect to its halfway point. High values mean lower potency in that assay, low ones higher potency in that assay. As a reminder, the CC50 is the concentration at which the toxic effect on the cells reaches its halfway point. The low end stands for greater toxicity to the cells, the high end for lower toxicity to the cells.
